Measurements as given in US7939267B2, “Detection of activation of endothelial cells as surrogate marker for angiogenesis” (Laboratory Corporation of America Holdings, priority 2004, dated 2011).
Where two headings read alike, the source gives them in different places.

Tests used:
Akt = details: HUVEC, increasing VEGF concentrations, data not shown
Description: Results of the assays are illustrated in FIGS. 10A, 10B and 10C.

RSK = details: HUVEC, increasing VEGF concentrations, 5 min stimulation time (FIG. 10B)
Protocol: (§1) • 1. Serum-starve human umbilical vein endothelial cell line (HUVEC) culture overnight before use. • 2. Stimulate cell lines with VEGF in culture media for a set period of time (1, 3, 5, 9, 14 minutes) at 37° C. Exemplary doses of VEGF are 0, 2, 10, 25, 50, 250, 1000 ng/mL. • 3. Aspirate culture media, transfer onto ice, and add lysis buffer to lyse cells in situ. • 4. Scrape and transfer lysate to microfuge tube. Incubate on ice for 30 min. Microfuge at 14,000 rpm, 4° C., for 10 min. (Centrifugation is optional.) • 5. Collect supernatants as lysates and aliquot for storage at −80° C. until use. Assay:
(§2) The total assay volume was 40 ul. The lysate volume was adjusted to 30 ul with lysis buffer.

Erk = details: HUVEC, increasing VEGF concentrations, 5 min stimulation time (FIG. 10A)
Protocol: as §1, §2

VEGFR2 = VEGFR2 (Homo sapiens, UniProt P35968)
Protocol: (§3) In this example, VEGFR2-VEGFR2 homodimers and phosphorylation states were measured in cell lysates from several cell lines after treatment with various concentrations of vascular endothelial growth factor (VEGF). Measurements were made using three binding compounds and a cleaving probe as described below.
as §1
(§4) Assay design: As illustrated diagrammatically in FIG. 7A, VEGFR2-VEGFR2 (R2-R2) homodimers (900) are quantified ratiometrically based on the binding of a cleaving probe (902), a first bind compound (904) which is specific for the same antigenic determinant on VEGFR2 as the cleaving probe, a second binding compound (906) which is specific for a different antigenic determinant on VEGFR2 from the cleaving probe, and a third binding compound (908) which is specific for phosphorylated tyrosine. A photosensitizer is attached to the cleaving probe (902) via an avidin-biotin linkage, and the first, second, and third binding compounds are labeled with molecular tags Pro10, Pro14, and Pro2, respectively.
(§5) The total assay volume was 40 ul. The lysate volume was adjusted to 30 ul with lysis buffer. The antibodies are diluted in lysis buffer up to 10 ul. Typically ˜5000 to 15000 cell-equivalent of lysates is used per reaction. The detection limit is ˜1000 cell-equivalent of lysates.
(§6) Procedure: Final concentrations of pre-mixed binding compounds (i.e. molecular tag- or biotin-antibody conjugates) in reaction: • Pro10_anti-VEGFR2: 0.25 ug/ml (VEGFR2 homodimer) • Pro14_anti-VEGFR2: 0.25 ug/ml (total VEGFR2) • Pro2_anti-phospho-Tyr: 0.0125 ug/ml (phosphorylation) • Biotin_anti-VEGFR2: 0.25 ug/ml • 1. To assay 96-well, add 10 ul antibody mix to 30 ul lysate and incubate for 1 hour at RT. • 2. Add 2 ul streptavidin-derivatized cleaving probe (final 2 ug/well) to assay well and incubate for 45 min. • 3. Add 150 ul of wash buffer to 96-well filter plate (Millipore MAGVN2250) and incubate for 1 hr at RT for blocking. • 4. Empty filter plate by vacuum suction.

VEGFR2-VEGFR2 homodimers [1] = target: T1, VEGFR2-VEGFR2 homodimers (Homo sapiens, UniProt P35968)
Protocol: as §3, §1, §4, §5, §6

VEGFR2-VEGFR2 homodimers [2] = target: T1, VEGFR2-VEGFR2 homodimers; remark: listed apart in the source
Protocol: • 1. […] Scrape and transfer lysate to microfuge tube. Incubate on ice for 30 min. […]

BAD = BAD phosphorylation in HUVEC cell lysates, releasable molecular tag assay; format: cell-based, human; details: increasing VEGF concentrations, 5 min stimulation time (FIG. 10C)
Protocol: • 1. […] Scrape and transfer lysate to microfuge tube. Incubate on ice for 30 min. […] (Centrifugation is optional.) • 5. […] Assay:
(§7) The total assay volume was 40 ul. […] The detection limit was ˜1000 cell-equivalent of lysates.
Pro52_anti-BAD (Total), 5 nM
Pro46_anti-Phospho-BAD (Phosphorylation), 5 nM
Pro53_anti-phospho-RSK (Phosphorylation), 5 nM • 1. […] Add 20 μl of Antibody mixture. • 3. […] Empty filter plate by vacuum suction. • 6. […] Repeat step 6 one more time. • 8. […] Illuminate the plate for 10 min. • 10.

Tie2-Tie2 homodimers = target: T2, Tie2-Tie2 homodimers (Homo sapiens, UniProt Q02763); assay: Tie2 homodimerization in HUVEC cell lysates, releasable molecular tag assay; format: cell-based
T2 construct: endogenous in cells; host or cells: HUVEC
Protocol: (§8) • 1. […] Stimulate cell lines with 200 ng/mL Ang-1 in culture media for a set period of time (10, 30 minutes) at 37° C. • 3. […] Scrape and transfer lysate to microfuge tube. Incubate on ice for 30 min. […] (Centrifugation is optional.) • 5. […] Assay:
(§9) Assay design: As illustrated diagrammatically in FIG. 4C, Tie2-Tie2 homodimers are quantified ratiometrically based on the binding of cleaving probe (134) and binding compounds (130), and (132). A photosensitizer indicated by “PS” is attached to cleaving probe (134) via an avidin-biotin linkage, and binding compounds (130), and (132) are labeled with molecular tags Pro10, and Pro14, respectively.
as §7
Pro10_anti-Tie2: 0.25 ug/ml (Tie2 homodimer)
(§10) Pro14_anti-Tie2: 0.25 ug/ml (total Tie2)
(§11) Biotin_anti-Tie2: 0.25 ug/ml • 1. […] Empty filter plate by vacuum suction. […] Repeat one time. • 6. […] Repeat one time. • 7. […] Assay buffers are as previously described. Data Analysis: • 1. […] Report homodimerization of Tie2 as the corresponding RFU ratiometric to RFU from Pro14_anti-Tie2 from assay wells using biotin_anti-Tie2.

Tie2 = target: T3, Tie2 (Homo sapiens, UniProt Q02763); assay: Total Tie2 receptor in HUVEC cell lysates, releasable molecular tag assay; format: cell-based; details: Ang-1 treatment (FIG. 8B)
T3 construct: endogenous in cells; host or cells: HUVEC
Protocol: as §8, §9, §7, §10, §11

T1 sequence (P35968 20-1356): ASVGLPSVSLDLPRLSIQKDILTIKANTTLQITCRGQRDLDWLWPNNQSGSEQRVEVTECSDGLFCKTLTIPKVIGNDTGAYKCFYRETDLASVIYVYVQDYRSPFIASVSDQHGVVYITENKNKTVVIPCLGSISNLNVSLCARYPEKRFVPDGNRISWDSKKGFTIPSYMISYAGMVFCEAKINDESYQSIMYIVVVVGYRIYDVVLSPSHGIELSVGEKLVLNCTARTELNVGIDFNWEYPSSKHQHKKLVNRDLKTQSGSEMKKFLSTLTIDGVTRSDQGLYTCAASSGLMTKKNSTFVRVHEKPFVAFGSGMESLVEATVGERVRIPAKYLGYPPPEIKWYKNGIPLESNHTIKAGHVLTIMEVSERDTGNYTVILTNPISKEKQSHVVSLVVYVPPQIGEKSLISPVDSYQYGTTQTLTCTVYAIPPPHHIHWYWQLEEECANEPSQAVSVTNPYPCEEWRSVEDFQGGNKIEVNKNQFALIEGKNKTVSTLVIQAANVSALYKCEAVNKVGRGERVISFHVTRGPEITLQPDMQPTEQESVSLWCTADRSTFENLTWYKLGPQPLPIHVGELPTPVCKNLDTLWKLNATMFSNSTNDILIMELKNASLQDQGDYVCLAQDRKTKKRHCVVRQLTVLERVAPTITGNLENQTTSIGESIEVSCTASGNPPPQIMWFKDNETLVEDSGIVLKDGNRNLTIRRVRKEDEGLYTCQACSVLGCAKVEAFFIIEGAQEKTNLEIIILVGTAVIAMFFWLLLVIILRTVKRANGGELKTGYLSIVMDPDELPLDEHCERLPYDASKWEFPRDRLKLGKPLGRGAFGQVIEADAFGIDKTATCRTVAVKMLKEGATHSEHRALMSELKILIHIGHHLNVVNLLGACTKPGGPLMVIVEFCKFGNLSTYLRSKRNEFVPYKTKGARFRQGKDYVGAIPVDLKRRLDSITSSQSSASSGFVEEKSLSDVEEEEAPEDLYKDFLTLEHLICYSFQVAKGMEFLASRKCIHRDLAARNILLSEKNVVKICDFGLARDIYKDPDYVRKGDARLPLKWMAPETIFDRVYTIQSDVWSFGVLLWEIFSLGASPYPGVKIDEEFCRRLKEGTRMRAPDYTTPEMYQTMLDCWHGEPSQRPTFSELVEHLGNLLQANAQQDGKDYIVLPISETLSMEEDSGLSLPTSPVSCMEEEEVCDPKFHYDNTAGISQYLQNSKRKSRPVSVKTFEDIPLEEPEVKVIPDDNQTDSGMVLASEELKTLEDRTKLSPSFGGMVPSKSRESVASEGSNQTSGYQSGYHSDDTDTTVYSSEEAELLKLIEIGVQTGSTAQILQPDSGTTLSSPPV
T2 sequence (Q02763 23-1124): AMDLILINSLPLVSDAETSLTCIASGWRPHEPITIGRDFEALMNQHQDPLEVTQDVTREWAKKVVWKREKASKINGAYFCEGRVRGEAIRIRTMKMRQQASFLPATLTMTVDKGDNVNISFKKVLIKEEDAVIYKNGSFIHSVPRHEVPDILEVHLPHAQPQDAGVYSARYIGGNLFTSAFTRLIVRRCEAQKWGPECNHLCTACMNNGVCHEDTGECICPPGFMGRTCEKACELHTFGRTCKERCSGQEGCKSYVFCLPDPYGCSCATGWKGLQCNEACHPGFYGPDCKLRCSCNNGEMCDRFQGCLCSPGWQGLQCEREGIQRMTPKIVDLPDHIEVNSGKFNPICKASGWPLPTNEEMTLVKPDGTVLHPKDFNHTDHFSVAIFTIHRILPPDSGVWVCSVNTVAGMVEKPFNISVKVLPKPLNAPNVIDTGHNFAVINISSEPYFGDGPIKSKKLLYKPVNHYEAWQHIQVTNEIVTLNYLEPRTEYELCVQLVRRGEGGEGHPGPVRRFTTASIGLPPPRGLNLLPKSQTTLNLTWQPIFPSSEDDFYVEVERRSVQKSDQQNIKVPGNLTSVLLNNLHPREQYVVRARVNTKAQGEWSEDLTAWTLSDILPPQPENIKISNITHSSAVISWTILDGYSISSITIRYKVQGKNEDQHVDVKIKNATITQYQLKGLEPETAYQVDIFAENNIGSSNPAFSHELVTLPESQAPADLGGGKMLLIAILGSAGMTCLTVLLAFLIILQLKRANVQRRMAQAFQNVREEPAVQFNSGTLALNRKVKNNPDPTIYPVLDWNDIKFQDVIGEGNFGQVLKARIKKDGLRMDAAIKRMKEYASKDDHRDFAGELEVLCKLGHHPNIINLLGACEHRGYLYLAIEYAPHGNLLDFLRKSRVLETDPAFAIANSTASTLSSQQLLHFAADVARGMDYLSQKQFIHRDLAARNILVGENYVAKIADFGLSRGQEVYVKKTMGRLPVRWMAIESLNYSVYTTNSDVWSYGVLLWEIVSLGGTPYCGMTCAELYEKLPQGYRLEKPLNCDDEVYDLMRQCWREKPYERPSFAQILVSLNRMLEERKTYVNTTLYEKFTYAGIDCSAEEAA
Chain of VEGFR2 (P35968 20-1356): as the sequence (P35968 20-1356) above
T3 sequence (Q02763 23-1124): as the sequence (Q02763 23-1124) above

Molecule: VEGF
- phosphorylation of Akt (Akt): increased on HUVEC cells with increasing concentrations of VEGF
- phosphorylation state of RSK (RSK): increases on HUVEC cells with increasing concentrations of VEGF
- phosphorylation state of Erk (Erk): increases on HUVEC cells with increasing concentrations of VEGF
- VEGFR2 phosphorylation (VEGFR2): increases on HUVEC cells with increasing concentrations of VEGF
- VEGFR2 phosphorylation over time (VEGFR2): transient, peaking at 1 minute of stimulation and decreasing to background level by 5 minutes
- VEGFR2-VEGFR2 homodimer formation over time (VEGFR2-VEGFR2 homodimers [1]): form by 1 minute of VEGF stimulation, and remain after up to 14 minutes of stimulation
- VEGFR2 homodimerization (VEGFR2-VEGFR2 homodimers [1]): large increase in VEGFR2 homodimerization
- quantity of VEGFR2-VEGFR2 homodimers (VEGFR2-VEGFR2 homodimers [1]): increases on HUVEC cells with increasing concentrations of VEGF
- VEGFR2 homodimerization (VEGFR2-VEGFR2 homodimers [2]): large increase in VEGFR2 homodimerization
- phosphorylation state of BAD (BAD): increases on HUVEC cells with increasing concentrations of VEGF

B1: Ang-1: angiopoietin-1, major physiological ligand for Tie-2, used to stimulate HUVEC cells (protein, UniProt Q15389 16-498, looked up)
Angiopoietin-1: HIGCSNQRRSPENSGRRYNRIQHGQCAYTFILPEHDGNCRESTTDQYNTNALQRDAPHVEPDFSSQKLQHLEHVMENYTQWLQKLENYIVENMKSEMAQIQQNAVQNHTATMLEIGTSLLSQTAEQTRKLTDVETQVLNQTSRLEIQLLENSLSTYKLEKQLLQQTNEILKIHEKNSLLEHKILEMEGKHKEELDTLKEEKENLQGLVTRQTYIIQELEKQLNRATTNNSVLQKQQLELMDTVHNLVNLCTKEGVLLKGGKREEEKPFRDCADVYQAGFNKSGIYTIYINNMPEPKKVFCNMDVNGGGWTVIQHREDGSLDFQRGWKEYKMGFGNPSGEYWLGNEFIFAITSQRQYMLRIELMDWEGNRAYSQYDRFHIGNEKQNYRLYLKGHTGTAGKQSSLILHGADFSTKDADNDNCMCKCALMLTGGWWFDACGPSNLNGMFYTAGQNHGKLNGIKWHYFKGPSYSLRSTTMMIRPLDF
- quantity of Tie2-Tie2 homodimers (Tie2-Tie2 homodimers; 200 ng/mL Ang-1, 10 min of stimulation (FIG. 8A)): increase on HUVEC cells
- quantity of Tie2-Tie2 homodimers (Tie2-Tie2 homodimers; 200 ng/mL Ang-1, 30 min stimulation (FIG. 8A)): decreases from that level
- total amount of Tie2 receptor (Tie2): does not change with Ang-1 treatment
